The results in this text go back to publication PMC9918900, “New Succinimide–Thiazolidinedione Hybrids as Multitarget Antidiabetic Agents: Design, Synthesis, Bioevaluation, and Molecular Modelling Studies” (Molecules, 2023).

One test deals with α-glucosidase. Briefly: in vitro α-glucosidase inhibitory activity. Format: biochemical, Homo sapiens. The procedure:
The inhibitory analyses for α-glucosidase were carried out in accordance with the protocols reported in the literature; the inhibitory activities of the synthesized hybrids were calculated utilizing screening assay tools.

The next test deals with T1, α-amylase (Homo sapiens, UniProt P04746).
T1 sequence (P04746 16-511): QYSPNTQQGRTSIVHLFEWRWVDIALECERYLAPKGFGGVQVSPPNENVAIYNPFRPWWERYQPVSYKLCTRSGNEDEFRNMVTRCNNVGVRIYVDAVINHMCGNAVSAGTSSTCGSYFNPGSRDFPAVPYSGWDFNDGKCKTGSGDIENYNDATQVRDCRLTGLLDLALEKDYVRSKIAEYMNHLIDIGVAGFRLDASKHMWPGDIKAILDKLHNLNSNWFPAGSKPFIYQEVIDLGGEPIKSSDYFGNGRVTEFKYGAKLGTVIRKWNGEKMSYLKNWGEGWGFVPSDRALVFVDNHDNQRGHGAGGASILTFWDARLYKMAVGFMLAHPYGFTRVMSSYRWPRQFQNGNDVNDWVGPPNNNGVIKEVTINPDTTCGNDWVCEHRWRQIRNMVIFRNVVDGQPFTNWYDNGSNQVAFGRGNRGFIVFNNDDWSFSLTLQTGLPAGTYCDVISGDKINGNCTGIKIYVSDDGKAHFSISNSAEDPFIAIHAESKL
Briefly: in vitro α-amylase inhibitory activity. Format: biochemical. As to the method: The test samples were added in alpha-amylase solution. The enzyme solution was prepared with enzyme and buffer solution. The mixture of the samples and enzyme was then incubated. Then, starch and dinitrosalicylic acid solution was added. The same was performed for both test compounds and the standard drug. […] The percent alpha-amylase inhibition activity and its IC50 values were calculated and confirmed as per the previous procedure.

The target of another test is T2, PTP1B (Homo sapiens, UniProt P18031).
T2 sequence (P18031 1-435): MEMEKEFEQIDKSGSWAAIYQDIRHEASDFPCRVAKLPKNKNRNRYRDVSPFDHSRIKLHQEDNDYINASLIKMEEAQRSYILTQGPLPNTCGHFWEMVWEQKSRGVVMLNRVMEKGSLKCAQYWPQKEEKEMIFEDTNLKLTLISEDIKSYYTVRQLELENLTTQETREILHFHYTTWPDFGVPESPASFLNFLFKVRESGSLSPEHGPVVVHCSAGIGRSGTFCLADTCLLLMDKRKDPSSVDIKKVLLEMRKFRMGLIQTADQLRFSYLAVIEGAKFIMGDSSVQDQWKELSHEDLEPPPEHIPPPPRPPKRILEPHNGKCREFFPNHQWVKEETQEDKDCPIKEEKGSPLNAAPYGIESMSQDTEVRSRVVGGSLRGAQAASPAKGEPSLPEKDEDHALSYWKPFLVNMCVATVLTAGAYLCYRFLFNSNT
Briefly: PTP1B assay (pNPP substrate). Format: biochemical. As to the method: The aforementioned newly synthesize succinimides and thiazolidinedione hybrids were tested against the PTP1B enzyme to determine their ability to inhibit the negative regulation of insulin as well as leptin signaling. The PTP1B test was performed with a small modification to the method described in the publications. The enzyme efficiency was evaluated using […] (pNPP) as a substrate. For the buffer solution, 0.5 millimolar (mM) of ethylene diamine tetraacetic acid (EDTA), 1 mM of mercaptoethanol, 0.55 mM of dithiothreitol (DTT), and 12.49 mM of TRIS hydrochloride (ph = 7.4) were used. The experiment was carried out by mixing 10.0 μL of the test compound solutions with 20.0 μL of the enzyme (1 μg/mL), subsequently injecting 40.0 μL of 4.0 mM 4-nitrophenyl dihydrogen phosphate in 130.5 μL of the prescribed buffer in a microplate well at 37 °C for 10 min. pNP was formed during the enzymatic process, which was monitored for 30 min. The IC50 values were derived using a non-linear regression analysis of the fraction of the product generated vs. the log of the inhibitory concentration.

A further test addresses T3, human DPP-4 enzyme (Homo sapiens, UniProt P27487).
T3 construct: purchased
Briefly: DPP-4 activity bioassay. Format: biochemical. The following applies: for inhibition at 31.25 µM / inhibition at 62.5 µM / inhibition at 125 µM / inhibition at 250 µM: read-out: DPP4 (inhibition) (converted); for inhibition at 500 µM: read-out: DPP4 (inhibition); for IC50: read-out: IC50 DPP4. As to the method: All succinimides and thiazolidinedione hybrids were tested for DPP-4 inhibitory effects on a human DPP-4 enzyme using the methodology published before. The DPP-4 kit was used to measure the inhibition. L-thiazolidine (P32/98) was included as a reference. The hybrids and DPP-4 enzyme were both adulterated 1/50 in the assay buffer (PH = 7.4, 25 mM Tris). Following that, a microplate well was filled with 5 μL of assay buffer, 3 μL of enzyme solution, and 2 μL of adequately diluted test chemical solutions. After a 12-min incubation period at 37.5 °C, a diluted substrate solution of 25 μL was added into the solution. A multi-mode reader was used to assess the fluorescence. […] PRISM5 was used to calculate the IC50 values and compare the inhibition ratio to the control without the inhibitor.

Setting [1] is: 31.25 µM, read-out: % α-Amylase Inhibition (converted).
Where [2] appears, read: 62.5 µM, read-out: % α-Amylase Inhibition (converted).
Where [3] appears, read: 125 µM, read-out: % α-Amylase Inhibition (converted).
The mark [4] stands for this setting: 250 µM, read-out: % α-Amylase Inhibition (converted).
The mark [5] stands for this setting: 500 µM, read-out: % α-Amylase Inhibition.
Setting [6] is: read-out: % α-Amylase Inhibition.

Like-named read-outs stand apart in the source and are kept apart here.

T3 sequence (P27487 whole entry): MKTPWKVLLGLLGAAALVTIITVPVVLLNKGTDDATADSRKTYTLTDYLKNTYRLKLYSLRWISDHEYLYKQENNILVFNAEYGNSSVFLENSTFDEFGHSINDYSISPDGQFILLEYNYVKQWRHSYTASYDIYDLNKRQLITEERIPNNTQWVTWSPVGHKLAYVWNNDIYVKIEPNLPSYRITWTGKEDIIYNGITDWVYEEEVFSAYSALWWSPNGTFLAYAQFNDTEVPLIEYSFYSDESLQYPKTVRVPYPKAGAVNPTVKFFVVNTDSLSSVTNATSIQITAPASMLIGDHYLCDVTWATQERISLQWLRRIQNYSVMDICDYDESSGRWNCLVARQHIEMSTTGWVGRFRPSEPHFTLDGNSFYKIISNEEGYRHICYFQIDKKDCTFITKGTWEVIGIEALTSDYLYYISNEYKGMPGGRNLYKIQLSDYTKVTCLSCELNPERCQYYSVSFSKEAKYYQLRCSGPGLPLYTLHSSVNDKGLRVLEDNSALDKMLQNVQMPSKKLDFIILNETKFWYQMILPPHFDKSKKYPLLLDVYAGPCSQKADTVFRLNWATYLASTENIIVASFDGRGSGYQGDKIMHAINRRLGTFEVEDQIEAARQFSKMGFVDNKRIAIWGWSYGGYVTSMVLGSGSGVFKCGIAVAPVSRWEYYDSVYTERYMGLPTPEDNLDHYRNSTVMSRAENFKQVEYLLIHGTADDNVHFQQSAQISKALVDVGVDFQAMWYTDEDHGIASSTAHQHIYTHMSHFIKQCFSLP

With `CN1C(=O)C[C@@H](C(C)(C)/C=C2\SC(=O)N(C(=O)CN3CCOCC3)C2=O)C1=O` [10b], the IC50 against α-glucosidase was found to be 27.4 µM; against α-amylase, 21.2 µM; against PTP1B, 16.8 µM; on human DPP-4 enzyme, 20.5 µM. Moreover, the “% α-Glucosidase Inhibition” value is given as 51.72 ± 0.66% with α-glucosidase (31.25 µM); 57.68 ± 0.49% with α-glucosidase (62.5 µM); 70.60 ± 0.46% in the test on α-glucosidase (125 µM); 75.62 ± 0.40% in the test with α-glucosidase (250 µM); 79.48 ± 0.74% in the test on α-glucosidase (500 µM). Further, the inhibition at 31.25 µM on α-amylase (setting [1]) is 48.5%; against PTP1B it was 57.2%; at human DPP-4 enzyme it was 54.3%. The inhibition at 62.5 µM at α-amylase (setting [2]) was 65.5%; on PTP1B, 65.8%; on human DPP-4 enzyme, 62.7%. The inhibition at 125 µM at α-amylase (setting [3]) is 70.5%; against PTP1B it was 72.8%; on human DPP-4 enzyme, 69.4%. Further, the inhibition at 250 µM at α-amylase (setting [4]) was 74.7%; on PTP1B it was 77.1%; on human DPP-4 enzyme it was 75.8%. In addition, the inhibition at 500 µM turned out to be 79.37 ± 0.69% at α-amylase (setting [5]), 85.3 ± 2.87% on PTP1B and 81.3 ± 1.42% on human DPP-4 enzyme.

`COc1ccc(N2C(=O)C[C@@H](C(C)(C)/C=C3\SC(=O)N(C(=O)CN4CCOCC4)C3=O)C2=O)cc1` [10e]: the IC50 against α-glucosidase was determined as 13.2 µM; against α-amylase, 9.66 µM; at PTP1B, 19.5 µM; on human DPP-4 enzyme it was 14.7 µM. The “% α-Glucosidase Inhibition” value is on record as 52.58 ± 0.63% in the test with α-glucosidase (31.25 µM); 74.94 ± 1.13% in the test with α-glucosidase (62.5 µM); 79.84 ± 0.30% in the test with α-glucosidase (125 µM); 81.08 ± 0.47% with α-glucosidase (250 µM); 86.44 ± 0.58% in the test on α-glucosidase (500 µM). Besides, the inhibition at 31.25 µM at α-amylase (setting [1]) was 73.4%; against PTP1B, 56.4%; at human DPP-4 enzyme it was 61.3%. Moreover, the inhibition at 62.5 µM on α-amylase (setting [2]) is 78.2%; against PTP1B, 63.5%; at human DPP-4 enzyme, 67.3%. The inhibition at 125 µM on α-amylase (setting [3]) was 82.5%; at PTP1B it was 67.2%; at human DPP-4 enzyme, 74.5%. Besides, the inhibition at 250 µM at α-amylase (setting [4]) was 88.6%; on PTP1B it was 75.8%; at human DPP-4 enzyme, 82.5%. Further, the inhibition at 500 µM was 92.7 ± 1.3% at α-amylase (setting [5]), 83.51 ± 0.54% against PTP1B and 88.5 ± 2.06% on human DPP-4 enzyme.

On PTP1B, `C[C@H]1[C@H](C)CC[C@]2(C(=O)O)CC[C@]3(C)C(=CC[C@@H]4[C@@]5(C)CC[C@H](O)C(C)(C)[C@@H]5CC[C@]43C)[C@H]12` [Ursolic acid, ursolic acid, reference compound] had an inhibition at 31.25 µM of 71.8%, an inhibition at 62.5 µM of 76.4%, an inhibition at 125 µM of 81.6% and an inhibition at 250 µM of 87.5%. Also, on PTP1B, the inhibition at 500 µM is 94.1 ± 1.04%.

As for `CC(C)(/C=C1\SC(=O)N(C(=O)CN2CCOCC2)C1=O)[C@@H]1CC(=O)N(c2ccccc2)C1=O` [10c], the IC50 amounted to 25.6 µM on α-glucosidase, 28.3 µM at α-amylase, 19 µM on PTP1B and 12.9 µM on human DPP-4 enzyme. Further, the “% α-Glucosidase Inhibition” value with α-glucosidase (31.25 µM) is on record as 62.72 ± 1.01%; with α-glucosidase (62.5 µM), 65.08 ± 0.47%; in the test on α-glucosidase (125 µM) it was 71.42 ± 0.43%; in the test with α-glucosidase (250 µM), 76.58 ± 1.12%; in the test with α-glucosidase (500 µM) it was 81.53 ± 0.71%. Also, the inhibition at 31.25 µM on α-amylase (setting [1]) is 62.4%; on PTP1B it was 53.5%; at human DPP-4 enzyme, 57.4%. Besides, the inhibition at 62.5 µM at α-amylase (setting [2]) is 67.6%; against PTP1B it was 63.4%; at human DPP-4 enzyme it was 62.6%. Besides, the inhibition at 125 µM at α-amylase (setting [3]) was 74.3%; against PTP1B, 69.3%; on human DPP-4 enzyme it was 67.4%. In addition, the inhibition at 250 µM is 81.7% on α-amylase (setting [4]), 73.4% at PTP1B and 72.6% on human DPP-4 enzyme. Also, the inhibition at 500 µM on α-amylase (setting [5]) came out at 88.6 ± 1.12%; against PTP1B, 79.4 ± 1.04%; at human DPP-4 enzyme it was 77.4 ± 1.51%.

Regarding `CC(C)(/C=C1\SC(=O)N(C(=O)CN2CCOCC2)C1=O)[C@@H]1CC(=O)NC1=O` [10a], the 50% inhibitory concentration (IC50) on α-glucosidase was found to be 16.5 µM; on α-amylase, 21.9 µM; at PTP1B, 12 µM; at human DPP-4 enzyme, 5.38 µM. Besides, the “% α-Glucosidase Inhibition” value in the test with α-glucosidase (31.25 µM) was found to be 54.56 ± 1.73%; in the test with α-glucosidase (62.5 µM) it was 65.44 ± 0.58%; in the test with α-glucosidase (125 µM), 72.93 ± 0.67%; in the test with α-glucosidase (250 µM), 75.58 ± 0.63%; with α-glucosidase (500 µM) it was 79.49 ± 0.6%. In addition, the inhibition at 31.25 µM was 54.6% at α-amylase (setting [1]), 62.9% on PTP1B and 67.5% on human DPP-4 enzyme. Further, the inhibition at 62.5 µM was 57.5% on α-amylase (setting [2]), 69.2% at PTP1B and 72.5% on human DPP-4 enzyme. Further, the values for the inhibition at 125 µM at α-amylase (setting [3]), on PTP1B and at human DPP-4 enzyme were 72.8%, 75.1% and 77.2%, respectively. Also, the inhibition at 250 µM is 77.6% on α-amylase (setting [4]), 82.6% at PTP1B and 82.5% at human DPP-4 enzyme. For the same molecule, the inhibition at 500 µM at α-amylase (setting [5]) came to 82.61 ± 0.77%; on PTP1B, 88.61 ± 0.43%; on human DPP-4 enzyme, 87.45 ± 0.59%.

As for `C[C@H]1O[C@H](O[C@H]2[C@H](O)[C@@H](O)[C@@H](O[C@H]3[C@H](O)[C@@H](O)C(O)O[C@@H]3CO)O[C@@H]2CO)[C@H](O)[C@@H](O)[C@@H]1N[C@H]1C=C(CO)[C@@H](O)[C@H](O)[C@H]1O` (some centres unmarked) [Acarbose, acarbose, reference compound], the “% α-Glucosidase Inhibition” value in the test on α-glucosidase (31.25 µM) is on record as 71.22 ± 0.47%. The “% α-Glucosidase Inhibition” value with α-glucosidase (62.5 µM) is reported as 76.44 ± 0.28%. Also, the “% α-Glucosidase Inhibition” value with α-glucosidase (125 µM) worked out at 80.90 ± 1.11%. In addition, in the test with α-glucosidase (500 µM), the “% α-Glucosidase Inhibition” value is recorded as 94.40 ± 0.03%. For the same molecule, at α-amylase (setting [6]), the inhibition at 31.25 µM was 70.8%, the inhibition at 62.5 µM was 75.4%, the inhibition at 125 µM was 80.6% and the inhibition at 250 µM was 86.5%. In addition, on α-amylase (setting [6]), the inhibition at 500 µM amounted to 93.1 ± 1.04%.
